Assay results: US11214803B2, “Modulators of YAP1 expression” (Ionis Pharmaceuticals, Inc., priority 2019, dated 2022)
Strand notation (5' to 3'): a small letter for the sugar, then the base; units joined by * are phosphorothioate-linked, units joined directly phosphodiester-linked; [ ] holds rarer units or linkages, { } end groups; capitals alone tell only the bases. e = 2'-O-(2-methoxyethyl) (MOE); k = constrained ethyl (cEt); [5mC] = 5-methylcytosine; d = 2'-deoxy (DNA); m = 2'-O-methyl

Test system: Yap1 mRNA
Assay: Antisense inhibition of human Yap1 in SNU-449 cells by modified oligonucleotides, single dose (Example 5, RTS36584)
Assay type: cell-based
How it was run: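 Each modified oligonucleotide is applied by free uptake to SNU-449 cultures at 2,000 nM, and total RNA is harvested around 48 h later. Yap1 transcript, quantified with the RTS36584 set and corrected for RIBOGREEN RNA content, is given as % UTC. Asterisks mark sequences overlapping the amplicon.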

[1] = Table 46, Yap1 mRNA as percent of untreated control, SNU-449 cells, single dose
[2] = Table 49, Yap1 mRNA level relative to untreated control, modified oligonucleotides targeting SEQ ID NO.: 1 and 2
[3] = Table 52, Yap1 mRNA, modified oligonucleotides targeting SEQ ID NO: 1 and 2
[4] = Table 50, Yap1 mRNA remaining as percent of untreated control (UT), SNU-449 cells, single dose
[5] = Table 39, SNU-449 cells, 10,000 cells per well, free uptake, 2,000 nM oligonucleotide, approx. 48 hours, RTS36584, normalized to RIBOGREEN, Yap1 mRNA relative to untreated control
[6] = Table 41, SNU-449 cells, 10,000 cells per well, free uptake, 2,000 nM modified oligonucleotide, approximately 48 hours, RTS36584, normalized to RIBOGREEN, Yap1 mRNA relative to untreated control cells
[7] = Table 42 (separate experiment), SNU-449 cells, 10,000 cells per well, free uptake, 2,000 nM modified oligonucleotide, approximately 48 hours, RTS36584, normalized to RIBOGREEN, Yap1 mRNA relative to untreated control cells
[8] = Table 43 experiment, SNU-449 cells, 10,000 cells per well, free uptake, 2,000 nM, approximately 48 hours, RTS36584, Yap1 mRNA normalized to RIBOGREEN, relative to untreated control cells
[9] = Table 44 experiment, SNU-449 cells, 10,000 cells per well, free uptake, 2,000 nM, approximately 48 hours, RTS36584, Yap1 mRNA normalized to RIBOGREEN, relative to untreated control cells
[10] = Table 45, Yap1 mRNA as percent of untreated control, SNU-449 cells, single dose
[11] = Table 48, Yap1 mRNA level relative to untreated control, modified oligonucleotides targeting SEQ ID NO.: 1 and 2
[12] = Table 51, Yap1 mRNA remaining as percent of untreated control (UT), SNU-449 cells, single dose
[13] = Yap1 mRNA, percent of untreated control, modified oligonucleotides targeting SEQ ID NO: 1 and 2, Table 47

1198825 (kG*kA*dG*dG*dT*dA*dT*dA*dA*d[5mC]*dT*kG*eG*kG*e[5mC]*kA; antisense) [Compound 1198825]
YAP1 (% UT) [1]: 64 % UT

1198573 (antisense kT*kT*kA*dA*dG*d[5mC]*dA*d[5mC]*dT*dT*dT*dT*kA*k[5mC]*kA*eT) [Compound 1198573]
YAP1 (% UT) [2]: 76 % UT

1200840 (k[5mC]*kT*kT*dA*dT*mA*dT*dG*dG*dT*dT*dT*dT*kG*kT*kG; antisense) [Compound 1200840]
YAP1 (% UT) [3]: 48 % UT

1198588 (antisense kA*kG*kA*dT*dT*dT*dA*dG*dG*dA*dT*dG*k[5mC]*kA*kT*eG) [Compound 1198588]
YAP1 (% UT) [4]: 32 % UT

1198584 (antisense TTAGGATGCATGGTTT; chemistry not fully specified) [Compound 1198584]
YAP1 (% UT) [2]: 37 % UT

1074461 (kG*kA*kA*dA*dT*dT*dG*dT*d[5mC]*dT*d[5mC]*dA*dT*kG*k[5mC]*k[5mC]) [Compound 1074461]
YAP1 (% UTC) [5]: 7 % UTC
YAP1 (% UTC) (Table 40 (separate experiment), SNU-449 cells, 10,000 cells per well, free uptake, 2,000 nM oligonucleotide, approx. 48 hours, RTS36584, normalized to RIBOGREEN, Yap1 mRNA relative to untreated control): 9 % UTC
YAP1 (% UTC) [6]: 12 % UTC
YAP1 (% UTC) [7]: 11 % UTC
YAP1 (% UTC) [8]: 11 % UTC
YAP1 (% UTC) [9]: 7 % UTC
YAP1 (% UTC) [10]: 9 % UTC
YAP1 (% UT) [1]: 14 % UT
YAP1 (% UT) [11]: 20 % UT
YAP1 (% UT) [2]: 10 % UT
YAP1 (% UT) [4]: 16 % UT
YAP1 (% UT) [12]: 5 % UT
YAP1 (% UT) [3]: 15 % UT
YAP1 (% UT) [13]: 5 % UT

1198921 (kT*kT*dA*dA*dG*d[5mC]*dA*d[5mC]*dT*dT*dT*kT*dA*k[5mC]*dA*kT; antisense) [Compound 1198921]
YAP1 (% UTC) [10]: 89 % UTC

1198249 (kT*kT*dA*dT*dA*dT*dG*dG*dT*dT*dT*eT*eG*eT*kG*kT; antisense) [Compound 1198249]
YAP1 (% UTC) [8]: 42 % UTC

1198941 (kT*kT*dA*dT*dA*dT*dG*dG*dT*dT*dT*kT*dG*kT*dG*kT; antisense) [Compound 1198941]
YAP1 (% UTC) [10]: 35 % UTC

1197268 (kA*kA*kG*dT*mG*dT*dA*dT*dG*dT*d[5mC]*dA*dG*kA*kA*kG) [Compound 1197268]
YAP1 (% UT) [12]: 25 % UT

1197187 (antisense kG*kG*kA*dA*dG*dA*dT*d[5mC]*dT*dG*dA*dA*dA*k[5mC]*kT*k[5mC]) [Compound 1197187]
YAP1 (% UT) [13]: 24 % UT

1198865 (kA*kA*dT*dA*dT*dT*dG*d[5mC]*dA*dA*dT*k[5mC]*eT*kG*eT*k[5mC]; antisense) [Compound 1198865]
YAP1 (% UT) [1]: 38 % UT

1198931 (kA*kG*dG*dA*dT*dG*d[5mC]*dA*dT*dG*dG*kT*dT*kT*dT*kT; antisense) [Compound 1198931]
YAP1 (% UTC) [10]: 47 % UTC

1198602 (antisense kA*kT*kA*dT*dT*dG*d[5mC]*dA*dA*dT*d[5mC]*dT*kG*kT*k[5mC]*eT) [Compound 1198602]
YAP1 (% UT) [4]: 29 % UT

1200851 (kG*kT*kA*dA*dT*mA*dT*dT*dG*d[5mC]*dA*dA*dT*k[5mC]*kT*kG; antisense) [Compound 1200851]
YAP1 (% UT) [3]: 25 % UT

1200859 (kA*kA*kA*dG*dT*mG*dT*dA*dT*dG*dT*d[5mC]*dA*kG*kA*kA; antisense) [Compound 1200859]
YAP1 (% UT) [3]: 28 % UT

1198283 (kT*kT*dA*dG*dA*d[5mC]*dT*dA*dA*dG*dT*eA*eA*eG*kG*kT; antisense) [Compound 1198283]
YAP1 (% UTC) [8]: 99 % UTC

1198300 (kT*kA*kT*dA*dT*dT*dA*dG*dA*dG*dT*dA*kT*eG*kT*eG; antisense) [Compound 1198300]
YAP1 (% UT) [11]: 60 % UT

1198466 (antisense kA*kG*dA*dG*dT*dA*dT*dG*dT*dG*dG*e[5mC]*kA*eA*kT*eA) [Compound 1198466]
YAP1 (% UTC) [8]: 12 % UTC

1198298 (kT*kA*kT*dT*dA*dG*dA*dG*dT*dA*dT*dG*kT*eG*kG*e[5mC]; antisense) [Compound 1198298]
YAP1 (% UT) [11]: 23 % UT

1198430 (kA*dT*dA*dT*dT*dG*d[5mC]*dA*dA*dT*d[5mC]*kT*eG*kT*e[5mC]*kT) [Compound 1198430]
YAP1 (% UTC) [5]: 49 % UTC

1198821 (kT*k[5mC]*dT*dA*dT*dA*dT*dT*dA*dG*dA*kG*eT*kA*eT*kG; antisense) [Compound 1198821]
YAP1 (% UT) [1]: 62 % UT

1198944 (k[5mC]*kT*d[5mC]*dT*dT*dA*dT*dA*dT*dG*dG*kT*dT*kT*dT*kG; antisense) [Compound 1198944]
YAP1 (% UTC) [10]: 34 % UTC

1198334 (kA*kT*kA*dT*dG*dG*dT*dT*dT*dT*dG*dT*kG*eT*kG*eT; antisense) [Compound 1198334]
YAP1 (% UT) [2]: 57 % UT

1197303 (k[5mC]*kT*kT*dA*mU*dA*dT*dG*dG*dT*dT*dT*dT*kG*kT*kG; antisense) [Compound 1197303]
YAP1 (% UT) [12]: 72 % UT

1198485 (antisense kA*kG*d[5mC]*dA*d[5mC]*dT*dT*dT*dT*dA*d[5mC]*eA*kT*eT*kA*eG) [Compound 1198485]
YAP1 (% UTC) [8]: 64 % UTC

1198617 (antisense k[5mC]*kT*kT*dT*dA*dA*dA*dG*dT*dG*dT*dA*kT*kG*kT*e[5mC]) [Compound 1198617]
YAP1 (% UT) [4]: 34 % UT

1198562 (antisense kA*kG*kG*dT*dA*dT*dA*dA*d[5mC]*dT*dG*dG*kG*k[5mC]*kA*eA) [Compound 1198562]
YAP1 (% UT) [4]: 30 % UT

1198675 (antisense k[5mC]*kA*dG*dA*dT*dT*dT*dA*dG*dG*dA*dT*kG*e[5mC]*kA*eT) [Compound 1198675]
YAP1 (% UTC) [6]: 35 % UTC

1198336 (k[5mC]*kT*kT*dA*dT*dA*dT*dG*dG*dT*dT*dT*kT*eG*kT*eG; antisense) [Compound 1198336]
YAP1 (% UT) [2]: 31 % UT

1198423 (kT*d[5mC]*dT*dT*dA*dT*dA*dT*dG*dG*dT*kT*eT*kT*eG*kT) [Compound 1198423]
YAP1 (% UTC) [5]: 10 % UTC

1198850 (kA*kG*dA*dT*dT*dT*dA*dG*dG*dA*dT*kG*e[5mC]*kA*eT*kG; antisense) [Compound 1198850]
YAP1 (% UT) [1]: 33 % UT

1198603 (antisense kA*kA*kT*dA*dT*dT*dG*d[5mC]*dA*dA*dT*d[5mC]*kT*kG*kT*e[5mC]) [Compound 1198603]
YAP1 (% UT) [4]: 51 % UT

1198429 (kA*dT*dT*dG*d[5mC]*dA*dA*dT*d[5mC]*dT*dG*kT*e[5mC]*kT*eG*kA; antisense) [Compound 1198429]
YAP1 (% UTC) [5]: 48 % UTC

1198342 (kG*kA*k[5mC]*dA*dA*d[5mC]*dT*d[5mC]*dT*dT*dA*dT*kA*eT*kG*eG; antisense) [Compound 1198342]
YAP1 (% UT) [2]: 101 % UT

1198835 (kT*kT*dA*dA*dG*d[5mC]*dA*d[5mC]*dT*dT*dT*kT*eA*k[5mC]*eA*kT; antisense) [Compound 1198835]
YAP1 (% UT) [1]: 85 % UT

1198899 (kA*kG*dT*dA*dT*dG*dT*dG*dG*d[5mC]*dA*kA*dT*kA*dA*kT) [Compound 1198899]
YAP1 (% UTC) [9]: 75 % UTC

1198845 (kA*kG*dG*dA*dT*dG*d[5mC]*dA*dT*dG*dG*kT*eT*kT*eT*kT; antisense) [Compound 1198845]
YAP1 (% UT) [1]: 43 % UT

1198479 (antisense kT*kT*dA*d[5mC]*dA*dT*dT*dA*dG*dG*dA*eA*k[5mC]*eA*kA*eG) [Compound 1198479]
YAP1 (% UTC) [8]: 65 % UTC

1198873 (kA*kG*dT*dG*dT*dA*dT*dG*dT*d[5mC]*dA*kG*eA*kA*eG*kA; antisense) [Compound 1198873]
YAP1 (% UT) [13]: 4 % UT

1198217 (kG*kG*dT*dA*dT*dA*dA*d[5mC]*dT*dG*dG*eG*e[5mC]*eA*kA*kA; antisense) [Compound 1198217]
YAP1 (% UTC) [8]: 57 % UTC

1198351 (kT*kT*kT*dA*dT*dG*dT*dA*dA*dT*dA*dT*kT*eG*k[5mC]*eA; antisense) [Compound 1198351]
YAP1 (% UT) [2]: 40 % UT

1198957 (kT*kT*dT*dA*dT*dG*dT*dA*dA*dT*dA*kT*dT*kG*d[5mC]*kA; antisense) [Compound 1198957]
YAP1 (% UTC) [10]: 81 % UTC

1200790 (kT*kG*kG*dA*dA*mA*dT*dT*dG*dT*d[5mC]*dT*d[5mC]*kA*kT*kG; antisense) [Compound 1200790]
YAP1 (% UT) [3]: 33 % UT

1198474 (antisense kT*kA*dT*dA*dA*d[5mC]*dT*dG*dG*dG*d[5mC]*eA*kA*eA*kT*eT) [Compound 1198474]
YAP1 (% UTC) [9]: 68 % UTC

1197278 (kG*kA*k[5mC]*dT*mA*dA*dG*dT*dA*dA*dG*dG*dT*kT*kT*k[5mC]) [Compound 1197278]
YAP1 (% UT) [12]: 36 % UT

1198713 (kT*kT*dA*dG*dA*d[5mC]*dT*dA*dA*dG*dT*dA*kA*eG*kG*eT; antisense) [Compound 1198713]
YAP1 (% UTC) [7]: 62 % UTC
